Source: PMC12864978, “Covalent modification of a glutamic acid inspired by HaloTag technology” (Nature Communications, 2026)
“Also recorded” adds a separate entry of the source. Like-named read-outs stand apart in the source and are kept apart here.

Key:
[1] = target: T1, PDEδ (Homo sapiens, UniProt O43924); assay: Covalent modification of PDEδ by MALDI mass spectrometry; type: binding; set-up: His tag; made in house; host or cells: Escherichia coli Rosetta (BL21DE3), pET plasmids; conditions: PDEδ 20 µM, compound 60 µM, HEPES pH 7.5, 37 °C; mean ± s.e.m.
Method: The solution was briefly centrifuged before a sample was taken at the designated time for analysis by MALDI. […] Mass spectra were obtained over the m/z range 15,000–25,000 using a Bruker UltrafleXtreme XIAL DI-TOF/TOF mass spectrometer. Percentages of covalent adduct formation were estimated by the relative intensity of the respective peaks in MALDI spectra.
1. Supplementary Figures and Tables
PDEδ (20 µM) was incubated with compounds (60 µM) in HEPES
Percentages of covalent adduct formation were estimated by the relative intensity of the respective peaks in MALDI spectra. Data are presented as mean ± s.e.m.
Apparent pseudo -first order kobs was estimated by percentages of covalent adduct formation at 2 hours by MALDI. Plot of kobs (h-1) against concentration (µM) was fitted by GraphPad […]
Prism Michaelis-Menten model and separate values for kinact and KI were obtained to calculate apparent […]
PDEδ (20 µM) was incubated with
Data are presented as mean ± s.e.m.
HEPES buffer, n = 3 for the rest). One-way ANOVA with matched time-points, with Geisser-

[2] = GSH adduct formation (stability in the presence of GSH); type: physicochemical; conditions: phosphate buffer with 10 mM GSH; 10-fold excess of GSH at 10 mM, phosphate buffer pH 7.4, 37 °C; read-out: half-life for GSH adduct formation t1/2 GSH (converted)
Method: (§1) Compound (1 mM) was incubated with the respective buffers (HEPES 20 mM, 150 mM NaCl, pH = 7.5; 0.2 M sodium acetate buffer, pH = 5.6; 0.2 M sodium citrate buffer, pH = 6.2; 0.2 M potassium phosphate buffer, pH = 7.4, 1 mM EDTA, with or without 10 mM GSH), with 1% DMSO adjusted for all conditions. […] Per cent (%) compound remaining in the solution was estimated by the ratio of areas under the curve, and data plotted were fitted to pseudo-1st kinetics in the calculation of rate constants (k) and half-lives (t1/2), where k is the negative slope of a linear regression of In (% compound remaining) over time. Half-lives (t1/2) in respective buffers and half-lives for GSH adduct formation (t1/2 GSH) were calculated with the following equations:1 t1/2=In2/k 2 kGSH=ktotalconsumptioninphosphatebufferinpresenceofGSH−k(phosphatebufferinabsenceofGSH) 3 t1/2GSH=In2/k(GSH) […]
(§2) a, Percentage (%) of compound remaining was monitored by HPLC-MS and data was fitted to pseudo-first kinetics in calculation of rate constants (k) and half-lives (t1/2) in respective buffers, where k is the negative slope of a linear regression of In (% compound remaining) over time and t 1/2 = In2/k. Initial […]
(§3) Initial GSH concentration =

[3] = Compound stability in aqueous buffers; type: physicochemical
Method: as §1, §2, §3

[4] = target: T1, PDEδ; assay: Differential scanning fluorimetry (NanoDSF); type: binding; set-up: His tag; made in house; host or cells: Escherichia coli Rosetta (BL21DE3), pET plasmids; conditions: PDEδ 20 µM, compound 60 µM; mean ± s.d., Fig. 2e; read-out: melting temperature shift ΔTm (NanoDSF)
Method: Afterwards, a sample of the solution was cooled down to room temperature and was loaded onto a capillary, followed by the measurement of fluorescence intensities at 350 nm and 330 nm from 20 °C up to 90 °C (with a rate of increment of 1 °C/min) using the Prometheus Panta device (NanoTemper® Technologies, DE).

[5] = target: T1, PDEδ; assay: Mass spectrometry analysis of PDEδ adducts after Glu-C digestion; type: binding; set-up: His tag; made in house; host or cells: Escherichia coli Rosetta (BL21DE3), pET plasmids; conditions: LC-MS/MS, 10:1 compound to protein
Method: For each replicate, 1.5 µg covalent adduct of PDEδ sample in PBS buffer was denatured, reduced, alkylated and digested by Glu-C and desalted, together with a negative control of unbound vehicle-treated PDEδ sample prior to mass spectrometry analysis. […] The final mixture containing 6.5 M guanidine hydrochloride was heated at 95 °C for 15 min. Subsequently, after cooling, 0.5 µl of a 50 mM dithiothreitol (DTT, cas 3483-12-3, Gerbu Biotechnik, #1008-100 g) solution was added. […] . Samples were incubated at 37 °C overnight with shaking at 400 rpm, protected from light. […] Desalting was carried out with stage tips with C18 extraction discs (Empore^TM high performance extraction discs, 47 mm, 3 M Bioanalytical Technologies #2215). Each stage tip, which consists of two stacked layers of C18 discs, was activated with methanol (100 µl), washed once with buffer B (100 µl, 0.1% formic acid, 80% acetonitrile), and twice with buffer A (100 µl/time, 0.1% formic acid). After sample loading and washing with buffer A once, the desalted sample was eluted with buffer B (20 µl/sample) and centrifuged at 500×g at room temperature for 5 min. Eluted samples were then dried in a SpeedVac at 30 °C.
Data evaluation was performed using MaxQuant software (v.2.2.0.0)[52]. […] Cleavages by Glu-C were analysed based on the enzyme that was used for digestion. […]

[6] = target: T1, PDEδ; assay: Competitive fluorescence polarisation assay (FA probe displacement); type: binding; set-up: His tag; made in house; host or cells: Escherichia coli Rosetta (BL21DE3), pET plasmids; conditions: PDEδ 40 nM, FA probe 24 nM, room temperature overnight
[7] = tested on: BxPC-3 cells; assay: Real-time cell analysis (Incucyte) of proliferation; type: cell-based, human
Method: (§4) Real-time cell analysis (RTCA) was conducted using an Incucyte S3 live-cell analysis system (Sartorius AG, Germany). […] Following attachment overnight, the medium was replaced with fresh medium containing test compounds, with all conditions adjusted to contain 0.5% DMSO. […] Phase-contrast images (2 images per well) were automatically captured at 2-h intervals until control wells (DMSO-treated) reached full confluency. Cell growth was quantified using the instrument’s integrated Basic Analyser module by applying a confluence mask to calculate the percentage of phase area confluence. […] Dose-response curves were generated and fitted via four-parameter variable slope nonlinear regression to determine cellular IC₅₀ values.

[8] = tested on: PA-TU-8902 cells; assay: as above; type: cell-based, human
Method: as §4

[9] = tested on: MIA PaCa-2 cells; assay: as above; type: cell-based, human
Method: as §4

[10] = tested on: SW480 cells; assay: as above; type: cell-based, human
Method: as §4

[11] = tested on: NCI-H358 cells; assay: as above; type: cell-based, human; conditions: read-out: cellular IC50
Method: as §4

[12] = tested on: panel of human cell lines; assay: Cytotoxicity screening in a panel of human cell lines; type: cell-based; conditions: concentrations up to 25 µM
Method: Real-time cell analysis (RTCA) was conducted using an Incucyte S3 live-cell analysis system (Sartorius AG, Germany). Adherent cell lines were seeded at 5 × 10³ cells per well in 96-well plates containing 100 µl of culture medium and incubated overnight at 37 °C with 5% CO₂. Following attachment overnight, the medium was replaced with fresh medium containing test compounds, with all conditions adjusted to contain 0.5% DMSO. […] Phase-contrast images (2 images per well) were automatically captured at 2-h intervals until control wells (DMSO-treated) reached full confluency. Cell growth was quantified using the instrument’s integrated Basic Analyser module by applying a confluence mask to calculate the percentage of phase area confluence. For dose-response assessment, confluence values at 72 h post-treatment were normalised to the DMSO control and analysed using GraphPad Prism 9.5.1 (GraphPad Software, USA). Dose-response curves were generated and fitted via four-parameter variable slope nonlinear regression to determine cellular IC₅₀ values.
representative of biological replicates n = 3.
comet images for each condition were shown.
time live-cell imaging by Incucyte.
Source data are provided as […]

[13] = tested on: Rheb localisation in PA-TU-8902 cells; assay: Immunofluorescence staining of Rheb; type: cell-based, human; conditions: 5 µM, overnight
Method: Immunostaining: compound-treated PA-TU-8902 cells were washed once with cold PBS, fixed with 3.7% paraformaldehyde in PBS by incubation at room temperature for 10 min and permeabilised with 0.3% Triton X-100 in PBS by incubation at room temperature for 15 min. […] After washing with PBS-T three times, PBS-incubated cells were imaged with Observer Z1 (Carl Zeiss, Germany) with a 63× oil objective.

[14] = target: PDEδ; conditions: previously developed PDEδ inhibitor chemotypes, Fig. 1b; read-out: KD (reported binding affinity); cited from earlier work
[15] = target: UNC119B (Homo sapiens, UniProt A6NIH7); assay: Mass spectrometry analysis of UNC119B adducts after Lys-C digestion; conditions: 10 eq., overnight at 37 °C; including binding pocket p.E174
[16] = Homo sapiens, 72 h, read-out: cellular IC50

## Cc1ccc(-n2nc3c(=O)n(CCCC(=O)NCCCCCBr)nc(C)c3c2C)cc1 [2d]
[1]
  % covalent modification at 24 h: 8 ± 5%

## Cc1ccc(-n2nc3c(=O)n(CCCC(=O)N(CCCCl)CC4CCNCC4)nc(C)c3c2C)cc1 [3a]
[1]
  % covalent modification at 24 h: not reactive enough to yield any detectable covalent adduct

## Cc1ccc(-n2nc3c(=O)n(CCCC(=O)N(CCCCCCl)CC4CCNCC4)nc(C)c3c2C)cc1 [3b]
[1]
  % covalent modification at 24 h: not reactive enough to yield any detectable covalent adduct

## Cc1ccc(-n2nc3c(=O)n(CCCC(=O)N(CCCBr)CC4CCNCC4)nc(C)c3c2C)cc1 [3c]
[1]
  % covalent modification at 24 h: not reactive enough to yield any detectable covalent adduct

## Cc1ccc(-n2nc3c(=O)n(CCCC(=O)N(CCCCCBr)CC4CCNCC4)nc(C)c3c2C)cc1 [3d]
[1]
  % covalent modification at 24 h: 11 ± 4%

## Cc1ccc(-n2nc3c(=O)n(CCCCS(=O)(=O)N(CCCCCBr)CC4CCNCC4)nc(C)c3c2C)cc1 [4b]
[1]
  % covalent modification at 24 h: 23 ± 3%

## Cc1ccc(-n2nc3c(=O)n(CCCCS(=O)(=O)N(CCCCCCCBr)CC4CCNCC4)nc(C)c3c2C)cc1 [5e]
[1]
  % covalent modification at 24 h: 62 ± 10%
[2]
  half-life at 1 mM: 180 days
[3]; HEPES buffer, pH 7.5, 37 °C, compound 1 mM, read-out: half-life t1/2 in HEPES buffer (converted)
  half-life at 1 mM: 85 h
[3]; acetate buffer, pH 5.6, 37 °C, read-out: half-life t1/2 in acetate buffer (converted)
  half-life at 1 mM: 43 h
[4]
  ΔTm at 60 µM: 14.7 ± 1.2 °C
[5]
  site of covalent modification in PDEδ: either at p.E88 or p.E89
[6]
  IC50: 0.017 ± 0.0061 µM

## Cc1ccc(-n2nc3c(=O)n(CCCCS(=O)(=O)N(CCCCCCCCl)CC4CCNCC4)nc(C)c3c2C)cc1 [5h]
[4]
  ΔTm at 60 µM: 11.3 ± 0.6 °C
[6]
  IC50: 0.0137 ± 0.0034 µM

## Cc1ccc(-n2nc3c(=O)n(CCCCS(=O)(=O)N(CCc4cccc(CCCl)c4)CC4CCNCC4)nc(C)c3c2C)cc1 [6b]
[7]; [16]
  IC50: > 26 µM
[8]; Homo sapiens, PaTu 8902, PA-TU-8902, 72 h, read-out: cellular IC50
  IC50: 12 ± 1 µM
[9]; Homo sapiens, MIA PaCa-2, 72 h, read-out: cellular IC50
  IC50: 10.9 ± 1.9 µM
[10]; [16]
  IC50: > 50 µM
[11]; Homo sapiens, NCI-H358, 72 h, NCI-H358, 72 h
  IC50: 6.8 ± 1.9 µM
[11]; NCI-H358, 72 h
  IC50: 6.3 ± 1.9 µM
[12]
  general cytotoxicity: not observed
[4]
  ΔTm at 60 µM: 11.1 ± 0.6 °C
[6]
  IC50: 0.0082 ± 0.004 µM

## Cc1ccc(-n2nc3c(=O)n(CCCC(=O)NCC(C)c4ccccc4)nc(C)c3c2C)cc1 (centres unmarked) [Deltazinone 1, reference compound]
[7]; doses up to 50 µM
  growth inhibition: little or no growth inhibition
[8]; 25 µM
  % Growth rate of PA-TU-8902 cells: 29%
[8]; 50 µM
  % Growth rate of PA-TU-8902 cells: 23%
[9]; 25 µM
  % Growth rate of MIA PaCa-2 cells: 96%
[9]; 50 µM
  % Growth rate of MIA PaCa-2 cells: 80%
[9]; MIA PaCa-2, doses up to 50 µM
  growth inhibition: little or no growth inhibition; also recorded: no anti-proliferative activity
[10]; doses up to 50 µM
  growth inhibition: little or no growth inhibition
[11]; Homo sapiens, NCI-H358, 72 h
  IC50: 0.14 ± 0.11 µM
[13]
  cellular Rheb distribution: loss of inhibition for PDEδ-Rheb interaction

## Cc1c(Cl)cccc1NC(=O)CCCn1nc(C)c2c(C)n(-c3ccccc3)nc2c1=O [Deltazinone derivative]
[14]
  Kd: 0.005 ± 0.002 µM

## CCOC(=O)N1CCC(Nc2c(NCCCBr)c(=O)c2=O)CC1 [compound 7]
[15]
  covalent modification of acid sites in UNC119B: covalently modified
